From ChEMBL document CHEMBL1148663, “High-throughput screening for Hsp90 ATPase inhibitors” (Bioorg Med Chem Lett, 2006) come the findings set out here.

The target in assay [1] is Heat shock protein HSP90 (Homo sapiens, UniProt P07900+P08238). As to the kind of experiment: Inhibition of Hsp90 by recombinant ATPase assay. Type of assay: functional.
Assay [2] concerns SK-BR-3. The assay is described as follows: Antiproliferative activity against human SKBr3 cells. Format: functional, cell-based.
Setting [3] is: Homo sapiens, SK-BR-3, read-out: IC50.

One may read the IC50 as the point on the concentration scale where inhibition reaches its midpoint. Take `COc1cc(C2CC(c3ccccc3O)=NN2)ccc1O` (stereo not given): the figures for the IC50 in assay [1] and in assay [2] (setting [3]) were 5.4 µM and 48 µM, respectively.
Consider `Cc1nc(N)sc1-c1csc(Nc2ccccn2)n1`, for which the half-maximal inhibitory concentration (IC50) in assay [1] is 7 µM; in assay [2] (sk-br-3), “Not Active”.
As for `O=S(=O)(Nc1ccc(Cl)cc1O)c1ccccc1`, the concentration for half-maximal inhibition (IC50) in assay [1] stood at 2 µM; in assay [2] (setting [3]), 75 µM.
Turning to `O=c1c(Oc2ccc(F)cc2)coc2c(O)c(O)ccc12`, the IC50 was 3.2 µM in assay [1] and “Not Active” in assay [2] (sk-br-3).
For `O=C1CC(Nc2ccc(N3CCOCC3)cc2)C(=O)N1Cc1ccccc1` (stereo not given), in that order: 1.9 µM and “Not Active”.
For `Cc1cc(O)nc(SCC(=O)c2ccc(O)c(O)c2)n1`, in that order: 2.3 µM and “Not Active”.
Turning to `O=C1CC(=O)N(c2cccc(Cl)c2)N1`, the figures for the concentration for half-maximal inhibition (IC50) in assay [1] and in assay [2] (sk-br-3) were 4.1 µM and “Not Active”, respectively.
Turning to `COc1ccc(O)c(-c2c[nH]nc2-c2cccs2)c1`, the IC50 in assay [1] is 3 µM; in assay [2] (sk-br-3), “Not Active”.
Take `COc1cccc(C(=O)Nc2ccc(O)c(C)c2)c1`: the half-maximal inhibitory concentration (IC50) was 2.5 µM in assay [1] and “Not Active” in assay [2] (sk-br-3).
With `CC1(C)CC2=Nc3ccccc3NC(c3cccc(O)c3O)C2=C(O)C1` (stereo not given), the values for the IC50 in assay [1] and in assay [2] (setting [3]) were 2.7 µM and 66 µM, respectively.
